Laboratory results published in patent US20130045969A1, “PLANT DISEASE CONTROLLING COMPOSITION AND METHOD FOR CONTROLLING PLANT DISEASE” (SUMITOMO CHEMICAL COMPANY, LIMITED, priority 2010, published 2013).

Tested on: gray mold fungus (Botrytis cinerea)
Experiment: Cucumber leaf disk preventive test against gray mold
Type: in vivo
Details: single compound, 15° C., four days
Method: True leaf of cucumber is punched out with cork borer to 13 mm in diameter to prepare a leaf disk. In 24 well microwell plate that is dispensed with 1 ml 0.8% water agar, the leaf disk is placed such that the upper side of the leaf is in an upward direction. Thereto is added 20 micro liter a testing solution prepared by mixing a dimethyl sulfoxide solution of the present compound (racemate) and a dimethyl sulfoxide solution of trifloxystrobin or pyribencarb to a predetermined concentration to treat the leaf disk. After confirming that the testing medical solution is dried, conidium of gray mold fungus (Botrytis cinerea) is suspended into potato dextrose broth (DIFCO) in a density of about 10^5 conidium/mL and is then subjected to a spray inoculation. After leaving to stand the leaf disk in a growth chamber set up at 15° C. for four days, an onset area on the leaf is measured and then calculated an onset area rate (hereinafter, referred to as an onset area rate of treated group). The same operation is carried out with 20 micro liter water instead of 20 micro liter a testing medicine solution to calculate an onset area rate (hereinafter, referred to an onset area rate of non-treated group). A preventive value is calculated from the above onset area rate of treated group and the onset area rate of non-treated group by the following equation: Preventive value (%)=100×(A−B)/A […] The same operations as described in Test Example 1 are carried out with azoxystrobin, dimoxystrobin, fluoxastrobin, kresoxim-methyl, metominostrobin, orysastrobin, picoxystrobin or pyraclostrobin instead of trifloxystrobin or pyribencarb, so as to calculate respective preventive values. Also for comparison, the same operations as described in Test Example 1 are carried out with the exception that the testing medicine solution is substituted with a predetermined concentration of each dimethyl sulfoxide solution of the present compound (racemate), azoxystrobin, dimoxystrobin, fluoxastrobin, kresoxim-methyl, metominostrobin, orysastrobin, picoxystrobin or pyraclostrobin, so as to calculate respective preventive values. For comparison, the same operations as described in Test Example 1 are carried out with the exception that the testing medicine solution is substituted with a predetermined concentration of each dimethyl sulfoxide solution of trifloxystrobin or pyribencarb, so as to calculate respective preventive values.

[1] = treatment concentration 0.5 ppm
[2] = treatment concentration 5.0 ppm

Row | SMILES | preventive value (%) [1] | preventive value (%) [2]
1 | CNC(=O)/C(=N/OC)c1ccccc1CO/N=C(C)/C(=N/OC)C(/C)=N/OC [orysastrobin] | 10% | 25%
2 | COC(=O)NCc1cc(/C(C)=N/OCc2cccc(C)n2)ccc1Cl [pyribencarb] | 42% | 58%
3 | CNC(=O)/C(=N/OC)c1ccccc1Oc1ccccc1 [metominostrobin] | 10% | 20%
4 | COC(=O)N(OC)c1ccccc1COc1ccn(-c2ccc(Cl)cc2)n1 [pyraclostrobin] | 15% | 35%
5 | CO/C=C(/C(=O)OC)c1ccccc1Oc1cc(Oc2ccccc2C#N)ncn1 [azoxystrobin] | 43% | 53%
6 | CO/C=C(/C(=O)OC)c1ccccc1COc1cccc(C(F)(F)F)n1 [picoxystrobin] | 10% | 30%
7 | CO/N=C(/C(=O)OC)c1ccccc1COc1ccccc1C [kresoxim-methyl] | 47% | 52%
8 | CO/N=C(/C1=NOCCO1)c1ccccc1Oc1ncnc(Oc2ccccc2Cl)c1F [fluoxastrobin] | 43% | 52%
9 | CON=C(C(=O)OC)c1ccccc1CON=C(C)c1cccc(C(F)(F)F)c1 [trifloxystrobin] | 10% | 20%
10 | CNC(=O)/C(=N/OC)c1ccccc1COc1cc(C)ccc1C [dimoxystrobin] | 48% | 57%
